We go through four compounds from ChEMBL document CHEMBL1143200, “Design and physicochemical properties of new fluorescent ligands of protein kinase C isozymes focused on CH/pi interaction” (Bioorg Med Chem, 2008).

Assay [1] has as its target T1, Protein kinase C epsilon type (Homo sapiens, UniProt Q02156).
T1 sequence (Q02156 whole entry): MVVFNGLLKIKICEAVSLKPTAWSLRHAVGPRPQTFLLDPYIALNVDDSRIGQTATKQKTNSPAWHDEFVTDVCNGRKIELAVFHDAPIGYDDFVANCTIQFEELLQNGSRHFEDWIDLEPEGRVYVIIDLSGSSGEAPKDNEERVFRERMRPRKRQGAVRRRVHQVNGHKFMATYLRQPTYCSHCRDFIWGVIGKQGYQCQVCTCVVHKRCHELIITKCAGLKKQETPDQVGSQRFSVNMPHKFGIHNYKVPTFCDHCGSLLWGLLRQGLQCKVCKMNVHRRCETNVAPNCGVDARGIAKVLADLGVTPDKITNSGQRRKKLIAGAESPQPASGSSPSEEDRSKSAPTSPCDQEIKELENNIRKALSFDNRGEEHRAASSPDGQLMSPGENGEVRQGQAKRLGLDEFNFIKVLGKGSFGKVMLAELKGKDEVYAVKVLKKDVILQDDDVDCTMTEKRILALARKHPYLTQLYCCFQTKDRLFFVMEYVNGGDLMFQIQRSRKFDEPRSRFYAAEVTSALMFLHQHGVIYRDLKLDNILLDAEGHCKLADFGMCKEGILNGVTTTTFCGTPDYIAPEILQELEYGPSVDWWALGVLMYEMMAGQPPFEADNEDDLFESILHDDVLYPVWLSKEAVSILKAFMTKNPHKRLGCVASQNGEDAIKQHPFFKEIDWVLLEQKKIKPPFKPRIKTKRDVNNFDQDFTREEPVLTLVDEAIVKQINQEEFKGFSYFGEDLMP
The experiment in a line: Displacement of [3H]PDBu from PKCepsilon C1B domain.

Assay [2] has as its target Protein kinase C delta type (Homo sapiens, UniProt Q05655). The experiment in a line: Displacement of [3H]PDBu from PKCdelta C1B domain.
The target of assay [3] is Protein kinase C eta type (Homo sapiens, UniProt P24723). The experiment in a line: Displacement of [3H]PDBu from PKCeta C1B domain.
Chain of Protein kinase C eta type (P24723 whole entry, the tested form may be a part): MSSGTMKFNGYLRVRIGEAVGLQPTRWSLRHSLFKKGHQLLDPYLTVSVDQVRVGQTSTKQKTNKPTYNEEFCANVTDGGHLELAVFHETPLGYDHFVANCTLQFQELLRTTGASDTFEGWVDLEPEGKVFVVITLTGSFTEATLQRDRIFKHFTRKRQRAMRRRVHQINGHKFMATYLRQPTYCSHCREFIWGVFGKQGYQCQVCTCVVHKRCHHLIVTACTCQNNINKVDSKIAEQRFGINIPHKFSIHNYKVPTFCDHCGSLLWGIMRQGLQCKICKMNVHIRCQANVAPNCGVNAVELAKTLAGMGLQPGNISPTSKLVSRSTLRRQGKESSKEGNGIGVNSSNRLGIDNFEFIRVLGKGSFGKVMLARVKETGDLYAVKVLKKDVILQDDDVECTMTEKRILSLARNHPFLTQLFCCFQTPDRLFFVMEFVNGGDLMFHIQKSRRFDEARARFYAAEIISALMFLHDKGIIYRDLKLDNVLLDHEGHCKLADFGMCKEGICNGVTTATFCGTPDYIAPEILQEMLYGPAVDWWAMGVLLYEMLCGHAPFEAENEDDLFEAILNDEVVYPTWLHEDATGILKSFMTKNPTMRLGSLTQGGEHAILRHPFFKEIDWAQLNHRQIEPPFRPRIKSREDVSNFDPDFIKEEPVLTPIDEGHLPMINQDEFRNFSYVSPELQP
In assay [4] the target is Protein kinase C theta type (Homo sapiens, UniProt Q04759). The experiment in a line: Displacement of [3H]PDBu from PKCtheta C1B domain. A general note: Loss of bound radioactivity is the signal in a displacement assay; it reports binding, not function.
Chain of Protein kinase C theta type (Q04759 whole entry, the tested form may be a part): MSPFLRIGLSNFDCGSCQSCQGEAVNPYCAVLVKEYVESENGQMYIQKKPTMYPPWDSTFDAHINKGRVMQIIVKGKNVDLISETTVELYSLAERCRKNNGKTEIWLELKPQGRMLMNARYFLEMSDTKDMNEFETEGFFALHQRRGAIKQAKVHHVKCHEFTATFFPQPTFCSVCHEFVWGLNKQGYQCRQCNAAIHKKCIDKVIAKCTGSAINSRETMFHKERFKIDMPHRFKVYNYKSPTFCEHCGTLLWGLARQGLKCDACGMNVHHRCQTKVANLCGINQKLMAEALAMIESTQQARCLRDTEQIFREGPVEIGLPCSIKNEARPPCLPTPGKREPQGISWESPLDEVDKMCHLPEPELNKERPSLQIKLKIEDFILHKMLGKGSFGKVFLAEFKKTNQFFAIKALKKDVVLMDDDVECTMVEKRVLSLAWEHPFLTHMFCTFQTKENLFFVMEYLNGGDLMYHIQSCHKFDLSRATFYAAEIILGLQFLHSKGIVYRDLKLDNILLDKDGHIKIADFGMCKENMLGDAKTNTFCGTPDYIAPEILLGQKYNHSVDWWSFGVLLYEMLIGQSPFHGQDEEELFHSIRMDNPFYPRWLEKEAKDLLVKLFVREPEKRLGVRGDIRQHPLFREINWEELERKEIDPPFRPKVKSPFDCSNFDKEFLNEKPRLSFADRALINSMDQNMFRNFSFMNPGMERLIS
Assay [5] addresses T2, Protein kinase C alpha type (Homo sapiens, UniProt P17252). The experiment in a line: Displacement of [3H]PDBu from PKCalpha C1A domain.
In assay [6] the target is T3, Protein kinase C beta type (Homo sapiens, UniProt P05771). Put plainly: Displacement of [3H]PDBu from PKCbeta C1B domain.
T3 sequence (P05771 whole entry, the tested form may be a part): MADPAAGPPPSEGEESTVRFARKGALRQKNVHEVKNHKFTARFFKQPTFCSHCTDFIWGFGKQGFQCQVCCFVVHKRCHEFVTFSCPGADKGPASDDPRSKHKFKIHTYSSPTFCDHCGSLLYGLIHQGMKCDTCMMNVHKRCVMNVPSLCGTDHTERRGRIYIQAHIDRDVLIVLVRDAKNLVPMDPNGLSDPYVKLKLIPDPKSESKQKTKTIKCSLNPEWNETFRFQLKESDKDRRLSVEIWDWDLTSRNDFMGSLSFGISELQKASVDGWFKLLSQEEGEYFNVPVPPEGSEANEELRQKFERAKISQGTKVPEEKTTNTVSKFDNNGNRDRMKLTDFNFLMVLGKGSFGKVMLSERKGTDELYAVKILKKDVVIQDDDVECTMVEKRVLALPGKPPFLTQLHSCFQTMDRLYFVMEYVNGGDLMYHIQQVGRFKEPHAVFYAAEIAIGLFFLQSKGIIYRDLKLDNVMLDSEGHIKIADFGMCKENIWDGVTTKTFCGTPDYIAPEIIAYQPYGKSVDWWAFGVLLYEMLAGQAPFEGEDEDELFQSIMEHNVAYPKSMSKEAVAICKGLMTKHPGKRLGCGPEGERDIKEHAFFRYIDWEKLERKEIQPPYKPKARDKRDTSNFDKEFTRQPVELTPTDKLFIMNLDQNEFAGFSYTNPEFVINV
The target of assay [7] is T3, Protein kinase C beta type. Put plainly: Displacement of [3H]PDBu from PKCbeta C1A domain.
In assay [8] the target is T2, Protein kinase C alpha type. Put plainly: Displacement of [3H]PDBu from PKCalpha C1B domain.
Assay [9] concerns the target T4, Protein kinase C gamma type (Homo sapiens, UniProt P05129). The experiment in a line: Displacement of [3H]PDBu from PKCgamma C1A domain.
For assay [10], the target named is T4, Protein kinase C gamma type. Put plainly: Displacement of [3H]PDBu from PKCgamma C1B domain.

Chain of Protein kinase C delta type (Q05655 whole entry, the tested form may be a part): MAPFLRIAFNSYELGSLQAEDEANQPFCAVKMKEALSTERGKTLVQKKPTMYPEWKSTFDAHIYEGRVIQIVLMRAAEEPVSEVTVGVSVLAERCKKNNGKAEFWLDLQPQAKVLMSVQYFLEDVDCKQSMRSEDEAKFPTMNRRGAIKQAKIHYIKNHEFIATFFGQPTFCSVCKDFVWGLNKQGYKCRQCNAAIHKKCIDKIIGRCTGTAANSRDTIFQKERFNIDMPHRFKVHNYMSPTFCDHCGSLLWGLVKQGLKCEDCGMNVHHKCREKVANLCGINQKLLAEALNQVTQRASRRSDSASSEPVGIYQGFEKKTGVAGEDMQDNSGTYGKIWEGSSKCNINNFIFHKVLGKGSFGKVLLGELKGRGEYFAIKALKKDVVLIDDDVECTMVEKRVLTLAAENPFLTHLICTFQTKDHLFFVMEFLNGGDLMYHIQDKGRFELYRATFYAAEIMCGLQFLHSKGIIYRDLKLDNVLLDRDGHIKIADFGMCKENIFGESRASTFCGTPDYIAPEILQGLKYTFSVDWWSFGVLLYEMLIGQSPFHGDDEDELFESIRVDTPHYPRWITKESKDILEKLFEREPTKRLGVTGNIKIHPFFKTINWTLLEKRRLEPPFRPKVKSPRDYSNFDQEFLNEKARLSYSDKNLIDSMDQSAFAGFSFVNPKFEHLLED

As a reminder, the Ki is the equilibrium dissociation constant of an inhibitor or competing ligand from its target. With `CC(C)[C@H]1C(=O)N[C@H](CO)Cc2cn3ncc4ccc(c2c43)N1C`, the Ki in [1] amounted to 22.5 nM; in assay [2] it was 17.7 nM; in [3], 9.9 nM; in assay [4], 18.6 nM; in assay [5] it was 85.5 nM; in assay [6], 5.96 µM. In addition, the Ki was 88 nM in assay [7], 357 nM in [8], 61.3 nM in assay [9] and 225 nM in assay [10].

On to `CC(C)[C@H]1C(=O)N[C@H](CO)Cc2c[nH]c3cccc(c23)N1C` [INDOLACTUM], for which the inhibition constant Ki in assay [6] came out at 4 µM; in [8] it was 140 nM.

Consider `CC(C)[C@H]1C(=O)N[C@H](CO)Cc2cn3nc(C(F)(F)F)c4ccc(c2c43)N1C`, for which the inhibition constant (Ki) was found to be 80.1 nM in [1]; 52.1 nM in assay [2]; 29.7 nM in assay [3]; 51.1 nM in assay [4]; 112 nM in assay [5]; 9.38 µM in assay [6]. Moreover, the Ki in assay [7] was found to be 127 nM; in assay [8], 721 nM; in assay [9] it was 234 nM; in assay [10], 1100 nM.

Consider `Cc1nn2cc3c4c(ccc1c42)N(C)[C@@H](C(C)C)C(=O)N[C@H](CO)C3`, for which the Ki in assay [1] is 407 nM; in [2] it was 128 nM; in assay [3] it was 223 nM; in [4] it was 149 nM; in assay [5], 1090 nM; in [6] it was > 10 µM. Also, the Ki in assay [7] stood at 1100 nM; in assay [8], 2620 nM; in assay [9], 1510 nM; in assay [10], 2580 nM.
